# Results from patent US8846627B2, “Method for treatment of malaria” (The Second Military Medical University, priority 2009, dated 2014).
# Test system: Plasmodium berghei (chloroquine sensitive strain)
# Assay: In vivo anti-malarial activity, 4-day suppressive test in infected mice
# Conditions: Swiss albino mice; for Day 4 % Suppression / Day 5 % Suppression / Day 6 % Suppression: intragastric
# Experimental: Tests were performed in a 4-day suppressive standard test using the methods of David, Thurston and Peters (David, A. F., Philip, J. R., Simon, L. C., Reto B., and Solomon N. Antimalarial drug discovery: Efficacy models for compound screening. Nature Reviews. 2004; 3: 509-520). The plasmodium species, that is most widely employed in rodent malaria parasite-Plasmodium berghei (chloroquine sensitive strain), was used to infect Swiss albino mice for a fourday suppressive test. The P. berghei was subsequently maintained in the laboratory by serial blood passage from mouse to mouse. For the study, a donor mouse with a rising parasitemia of 20% was sacrificed and its blood was collected in a slightly heparinized syringe from the auxiliary vessels. The blood was diluted with Trisodium Citrate (TC) medium so that each 0.2 ml contained approximately 107 infected red cells. Each animal received inoculums of about […], which is expected to produce a steadily rising infection in mice.
# Male Swiss albino mice were used. The mice were allowed to acclimatize to the laboratory environment under a controlled temperature of 20° C. and at optimum humidity for at least three days before being subjected to the experiments. All of the mice were divided into groups of six, and infected with malaria parasites.
# The infection of the recipient mice was initiated by needle passage of the above mentioned parasite preparation, from the donor to healthy test animals via an intraperitoneal route. Therefore, P. berghei infected red blood cells were intraperitoneally injected into the mice from the blood diluted with TC medium so that each 0.2 ml had approximately 106-107 infected red cells (parasite per kg of body weight). Each mouse was infected with single inoculums of 0.2 ml blood.
# The 4-day procedures were started on Mondays while blood smears for parasitemia were collected on Fridays. The infected mice were weighed, randomly divided into treatment, vehicle and standard drug groups. […] The compounds were administered through intra gastric route using the stomach tube to ensure the safe ingestion of the compounds and the vehicle.
# Thin smears of blood films were obtained from the peripheral blood on the tail from each mouse on day four after infection. The smears were placed on microscopic slides, fixed with methanol and stained with Gemsa at pH 7.2, for parasitemia. […] The number of parasitized erythrocytes in each of the 10-50 such fields were counted three times and the average was calculated to give the Parasitemia of each individual animal. Percentage of suppression was calculated by using the following formula. % Suppression=(Parasitemia in negative control−Parasitemia in study group)/Parasitemia in negative control
structure (smiles),measurement,setting,value
O=C(/C=C/c1ccc(O)cc1)OC[C@H]1O[C@@H](Oc2c(-c3ccc(O)cc3)oc3cc(O)cc(O)c3c2=O)[C@H](O)[C@@H](O)[C@@H]1O [Tiliroside],Day 4 % Suppression,10 mg/kg daily for 4 days,39.1%
same,Day 5 % Suppression,10 mg/kg daily for 4 days,51.5%
same,Day 6 % Suppression,10 mg/kg daily for 4 days,35.1%
same,Day 4 % Suppression,50 mg/kg daily for 4 days,56.5%
same,Day 5 % Suppression,50 mg/kg daily for 4 days,64.0%
same,Day 6 % Suppression,50 mg/kg daily for 4 days,54.0%
same,Day 4 % Suppression,100 mg/kg daily for 4 days,34.7%
same,Day 5 % Suppression,100 mg/kg daily for 4 days,39.3%
same,Day 6 % Suppression,100 mg/kg daily for 4 days,21.6%
same,Day 4 % Suppression,200 mg/kg daily for 4 days,21.7%
same,Day 5 % Suppression,200 mg/kg daily for 4 days,30.3%
same,Day 6 % Suppression,200 mg/kg daily for 4 days,18.9%
same,Day 5 % Suppression,400 mg/kg daily for 4 days,9.0%
same,maximum suppression ratio,maximum over doses and days,60%
